The target in one data set is T1, human 5-HT2C receptor (Homo sapiens, UniProt P28335).
T1 construct: expressed in transfected cells; host or cells: U2OS, stably transfected
T1 sequence (P28335 33-458): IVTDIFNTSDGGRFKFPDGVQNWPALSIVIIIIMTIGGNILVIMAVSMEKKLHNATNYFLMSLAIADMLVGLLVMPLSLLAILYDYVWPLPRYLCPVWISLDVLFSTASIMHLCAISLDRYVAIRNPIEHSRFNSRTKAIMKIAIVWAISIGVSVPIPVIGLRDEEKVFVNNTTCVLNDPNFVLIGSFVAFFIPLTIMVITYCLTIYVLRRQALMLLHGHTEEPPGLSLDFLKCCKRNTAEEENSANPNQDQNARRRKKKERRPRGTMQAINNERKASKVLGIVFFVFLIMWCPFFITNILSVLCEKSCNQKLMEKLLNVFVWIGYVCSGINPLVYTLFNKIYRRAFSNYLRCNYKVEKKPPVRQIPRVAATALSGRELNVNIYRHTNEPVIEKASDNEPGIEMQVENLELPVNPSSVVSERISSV
The data set can be described thus: cell-based. The conditions noted are these: for pEC50: calcium mobilization, U2OS cells (Table 30); for Emax (% of serotonin): relative to maximum response of serotonin (Table 30).

Data set [1] is described as follows: Rat liver microsomes stability. Format: in vitro ADME. As to conditions: Rat liver microsomes; for microsomal CLint at 2 μM / half-life at 2 μM / CLint scaled at 2 μM: male; for microsomal CLint at 2 μM: rat, liver microsomes, read-out: CLint (μL/min/mg protein); for microsomal CLint at 2 μM / half-life at 2 μM: 2 μM compound, 0.5 mg/mL microsomes, 1 mM NADPH; for half-life at 2 μM: 37° C; for CLint scaled at 2 μM: read-out: Scaled-up CLint. As to the method:
The objective of this study was to estimate in vitro metabolic stability of exemplary compounds of Formula (I) or a pharmaceutically acceptable salt, solvate, and/or prodrug thereof in pooled human, male rat, and male mouse liver microsomes. The concentrations of compounds in reaction systems were evaluated by LC-MS/MS for estimating the stability in pooled human, male rat, and male mouse liver microsomes. The in vitro intrinsic clearances of test compounds were determined as well.
A master solution in the “Incubation Plate” containing phosphate buffer, ultra-pure H2O, MgCl2 solution and liver microsomes was made according to Table 33. The mixture was pre-warmed at 37° C. water bath for 5 minutes.
40 μL of 10 mM nicotinamide adenine dinucleotide phosphate (NADPH) solution was added to each well. The final concentration of NADPH was 1 mM. The negative control samples were prepared by replacing NADPH with 40 μL of ultra-pure H2O. Samples were prepared in duplicate. Negative controls were prepared in singlet.
The reaction was started with the addition of 4 μL of 200 μM exemplary test compounds of the disclosure or control compounds to each master solution to get the final concentration of 2 μM. This study was performed in duplicate.
Aliquots of 50 μL were taken from the reaction solution at 0, 15, 30, 45, and 60 minutes. The reaction solutions were stopped by the addition of 4 volumes of cold methanol with IS (100 nM alprazolam, 200 nM imipramine, 200 nM labet alol and 2 μM ketoprofen). Samples were centrifuged at 3,220 g for 40 minutes. Aliquot of 90 μL of the supernatant was mixed with 90 μL of ultra-pure H2O and then was used for LC-MS/MS analysis.
LC/MS analysis was performed for all samples from this study using a Shimadzu liquid chromatograph separation system equipped with degasser DGU-20A5R; solvent delivery unit LC-30AD; system controller SIL-30AC; column oven CTO-30A; CTC Analytics HTC PAL System. Mass spectrometric analysis was performed using a Triple Quad™ 5500 instrument.
All calculations were carried out using Microsoft Excel. Peak area ratios of test compound to internal standard (listed in the below table) were determined from extracted ion chromatograms.
All calculations were carried out using Microsoft Excel. Peak areas were determined from extracted ion chromatograms. The slope value, k, was determined by linear regression of the natural logarithm of the remaining percentage of the parent drug vs. incubation time curve.
The in vitro half-life (in vitro t1/2) was determined from the slope value:
Conversion of the in vitro t1/2(min) into the in vitro intrinsic clearance (in vitro CLint, in μL/min/mg proteins) was done using the following equation (mean of duplicate determinations): […]
A master solution in the “Incubation Plate” containing phosphate buffer, ultra-pure H2O, MgCl2 solution and liver microsomes was made according to Table 63. The mixture was pre-warmed at 37° C. water bath for 5 minutes.
40 μL of 10 mM NADPH solution was added to each well. The final concentration of NADPH was 1 mM. The negative control samples were prepared by replacing NADPH with 40 μL of ultra-pure H2O. Samples were prepared in duplicate. Negative controls were prepared in singlet.
Conversion of the in vitro t1/2(min) into the in vitro intrinsic clearance (in vitro C Lt, in μL/min/mg proteins) was done using the following equation (mean of duplicate determinations): […]
(Liver microsomes are a subcellular fraction often used to study metabolism.)

The target of the next data set is human 5-HT2A receptor (Homo sapiens, UniProt P28223). Kind of data set: h-5HT2A β-arrestin reporter assay in U2OS cells. Format: cell-based. The arrangement: expressed in transfected cells. As to conditions: for Emax (% of serotonin): relative to maximum response of control ligand serotonin. As to the method:
(§1) Compound potency (EC50) and efficacy (Max response) against the human 5-HT2A receptor in stably transfected U2OS cells was determined in a G protein-coupled receptors (GPCR) cell based p-arrestin reporter assay. Cells were seeded in a total volume of 20 μL into white walled, 384-well microplates and incubated at 37° C. overnight before analysis. For agonist determination, cells were incubated with sample to induce response. Intermediate dilution of sample stocks was performed to generate 5×sample in assay buffer. 5 μL of 5×sample was added to cells and incubated at 37° C. for 120 minutes. Final assay vehicle concentration was 1%.
as §1, with “5-HT2Areceptor” for “5-HT2A receptor”, “GPCR” for “G protein-coupled receptors (GPCR)”, “P-arrestin” for “p-arrestin”
(In general: Reporter assays use an easily measured gene product as a stand-in for the process of interest.)

SMILES strings stand for the structures. pEC50: −log10 of the molar value. A value given as a limit tells only on which side of the number the result lay.

Sequence of human 5-HT2A receptor (P28223 whole entry): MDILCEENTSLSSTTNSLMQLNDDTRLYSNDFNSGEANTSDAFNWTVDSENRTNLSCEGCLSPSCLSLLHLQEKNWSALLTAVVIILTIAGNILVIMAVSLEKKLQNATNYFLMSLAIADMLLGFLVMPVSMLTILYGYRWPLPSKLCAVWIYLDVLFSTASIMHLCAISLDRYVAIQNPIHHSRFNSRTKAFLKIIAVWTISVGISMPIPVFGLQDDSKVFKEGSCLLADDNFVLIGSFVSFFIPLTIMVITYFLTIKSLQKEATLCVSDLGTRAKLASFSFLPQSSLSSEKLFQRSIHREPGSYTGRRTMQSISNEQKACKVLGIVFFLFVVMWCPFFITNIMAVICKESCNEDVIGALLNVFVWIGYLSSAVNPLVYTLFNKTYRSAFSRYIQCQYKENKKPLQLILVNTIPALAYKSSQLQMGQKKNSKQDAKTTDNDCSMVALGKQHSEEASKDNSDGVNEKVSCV

For the compound `[2H]C([2H])([2H])N(CCc1c[nH]c2ccc(SC)cc12)C([2H])([2H])[2H]` [Compound I-1, N,N-Bis(methyl-d3)-2-(5-(methylthio)-1H-indol-3-yl)ethan-1-amine], on human 5-HT2C receptor, the pEC50 – broadly, −log10 of the EC50, conventionally taken in molar units – is 8.63 and the “Emax (% of serotonin)” value is on record as 98.89 % of serotonin. In addition, in data set [1], the “Predicted hepatic CL” value is over 50.17 mL/min/kg; the microsomal CLint at 2 μM is over 307 µL/min/mg; the half-life (commonly how long it takes for the measured level to halve) at 2 μM was under 4.51 min; the CLint scaled (usually a measure of how fast metabolising enzymes remove a compound, apart from limits set by blood flow) at 2 μM is over 550 mL/min/kg. On human 5-HT2A receptor, the negative-log EC50 (pEC50) is 7.23 and the “Emax (% of serotonin)” value is given as 74 % of serotonin.
In the case of `CCN(C)CCc1c[nH]c2ccc(SC)cc12` [Compound I-13, N-Ethyl-N-methyl-2-(5-(methylthio)-1H-indol-3-yl)ethan-1-amine], on human 5-HT2C receptor, the pEC50 was 8.54 and the “Emax (% of serotonin)” value was 92.77 % of serotonin. Moreover, in data set [1], the “Predicted hepatic CL” value is reported as 42.35 mL/min/kg, the microsomal CLint at 2 μM came to 102 µL/min/mg, the half-life at 2 μM stood at 13.7 min and the CLint scaled at 2 μM worked out at 182 mL/min/kg. Besides, at human 5-HT2A receptor, the pEC50 was 7.23 and the “Emax (% of serotonin)” value is 75.27 % of serotonin.

The record behind these values is US20250257034A1, “INDOLE DERIVATIVES AS SEROTONERGIC AGENTS USEFUL FOR THE TREATMENT OF DISORDERS RELATED THERETO” (priority 2023, published 2025).
